What was measured:
LN229 cells = experiment: Cell viability assay, LN229 cells; assay type: cell-based, human; conditions: for IC50: Homo sapiens, LN-229, LN229 cells, read-out: Inhibition of Cancer Cell Growth (IC50)
Method: Each of the compounds was used to treat the cancer LN229 cells and examined first by western and dot blot assays for the degradation of SUMO1 protein and then by cell viability assay for the IC50 values of anticancer activity.
(§1) LN229 cell were treated with a series of dilutions of CPD1 and examined by cell viability assay for cell growth inhibition (FIG. 2B). […] Therefore, CPD1 acts as the degrader of SUMO1 protein and inhibitor of SUMO1 conjugation in cancer cells.

SUMO1 [1] = experiment: Ubiquitination of Flag-SUMO1 (immunoprecipitation, western blot) in co-transfected LN229 cells; assay type: cell-based, human; conditions: LN229 cells co-transfected with Flag-SUMO1-GV and HA-UB-WT
From the text: (§2) The non-conjugated Flag-tagged SUMO1 (Flag-SUMO1-GV) and the HA-tagged wild type (WT) UB (HA-UB-WT) were co-transfected in LN229 cells.

colon HCT116 xenografts = experiment: Subcutaneous xenografts of colon HCT116 cancer cell line in nude mice; assay type: in vivo
Method: (§3) For the therapeutic effects of the compounds, we examined the effects of CPD1 and CPD24 on various types of cancer xenografts in mice. […] NOD/SCID mice bearing intracranial brain xenografts of glioblastoma LN229 cell line were treated with CPD1.

lung A549 xenografts = experiment: Subcutaneous xenografts of lung A549 cancer cell line in nude mice; assay type: in vivo
Method: as §3

[2] = tested on: colon cancer PDX (L1206F); experiment: Patient derived xenograft of colon cancer (L1206F); assay type: in vivo, mice
From the text: (§4) The left two graphs show data for compounds CPD1 and the middle two graphs show data for CPD24 treatment of colon cancer PDX (L1206F). […] The right two graphs show data for compound CPD1 and CPD24 treatment of lung cancer PDX (L1102F). […] The significance of **P<0.01, and ***P<0.001 was statistically analyzed.
as §3

lung cancer PDX (L1102F) = experiment: Patient derived xenograft of lung cancer (L1102F); assay type: in vivo, mice; conditions: for PDX growth: CPD24 25 and 50 mg/kg, CPD1 100 mg/kg
From the text: as §4, §3

[3] = Tolerability across all xenograft mice; assay type: in vivo; conditions: over the treatment period
Method: as §3

SUMO1 [4] = target: T1, SUMO1 (Homo sapiens, UniProt P63165); experiment: Western and dot blot of normal lung epithelial Nuli-1 and lung cancer cells; assay type: cell-based; parameters: CPD24 treatment reduces SUMO1 conjugation and total levels of SUMO1 protein in the cancer but not normal cells; endogenous in cells
T1 sequence (P63165 1-97 limits assumed): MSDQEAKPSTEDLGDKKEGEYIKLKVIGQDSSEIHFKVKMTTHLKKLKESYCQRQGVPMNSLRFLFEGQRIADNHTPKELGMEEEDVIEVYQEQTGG

[5] = tested on: NCI-60 panel cancer cell lines; experiment: Cell growth analysis of NCI-60 panel cancer cell lines; assay type: cell-based, human; conditions: FIG. 5C
[6] = tested on: intracranial glioblastoma LN229 xenografts; experiment: Intracranial brain xenografts of glioblastoma LN229 in NOD/SCID mice, Kaplan Meier survival; assay type: in vivo; conditions: intracranial LN229, log rank test
Method: as §3

log P = assay type: physicochemical
From the text: (§5) For example, without limitation, pharmaceutical compositions of this compound (CPD1) can comprise a molecular weight 348 g/mol and the log P value 3.7.

[7] = Pharmacokinetics, tissue distribution and toxicity in mice, intraperitoneal administration; assay type: in vivo
From the text: as §5

SUMO1 [8] = target: T1, SUMO1; experiment: Western and dot blot assays for SUMO1 conjugation and SUMO1 protein levels in LN229 cells; assay type: cell-based; parameters: analyzed by western blotting for detection of the conjugate and free form of SUMO1 protein and dot blotting for total levels of SUMO1 protein; endogenous in cells; host or cells: LN229 glioblastoma cells; conditions: LN229 cells
Method: FIG. 2A illustrates how the glioblastoma LN229 cell line was treated with each of compounds of the National Cancer Institute (NCI) Diversity Set IV library and analyzed by western blot assays using SUMO1, SUMO2/3, UB and β-actin antibodies.
as §1, §2

N#Cc1ccc2nc(NC(=O)Nc3cccc(Cl)c3)sc2c1 [Compound 24, 1-(3-chlorophenyl)-3-(6-cyano-1,3-benzothiazol-2-yl)urea]
IC50 (LN229 cells): ≤ 5 µM
inhibition of the cell growth, compared with the other representative compounds (LN229 cells; LN229 cells, FIG. 3A): much more potent in inhibition of the cell growth
poly-ubiquitination of SUMO1 protein (SUMO1 [1]): results in the poly-ubiquitination of SUMO1 protein
xenograft progression (colon HCT116 xenografts): significantly suppressed xenograft progression
xenograft progression (lung A549 xenografts): significantly suppressed xenograft progression
body weight of mice [2]: had no effects on the body weight of mice
tumor growth (tumor sizes) [2]: significantly inhibits the tumor growth of the colon cancer PDXs
mouse body weight (lung cancer PDX (L1102F)): no effects of the treatment on mouse body weight
PDX growth inhibition, potency compared with CPD1 (lung cancer PDX (L1102F); CPD24 25 and 50 mg/kg versus CPD1 100 mg/kg): more potent
PDX growth (lung cancer PDX (L1102F)): markedly inhibits the PDX growth
tolerability, clinical signs [3]: well tolerated over the treatment period with no clinical signs of lethargy, ataxia, paralysis, seizure or weight loss
SUMO1 conjugation and total SUMO1 protein in normal versus cancer cells (SUMO1 [4]): reduces SUMO1 conjugation and total levels of SUMO1 protein only in cancer cells

O=C(Nc1ccc(Cl)c([N+](=O)[O-])c1)Nc1nc2ccccc2s1 [Compound 1]
IC50 (LN229 cells): ≤ 5 µM
poly-ubiquitination of SUMO1 protein (SUMO1 [1]): results in the poly-ubiquitination of SUMO1 protein
cell growth of NCI-60 panel cancer cell lines [5]: significantly inhibits the cell growth of breast, colon, lung, kidney, ovarian, prostate, skin (melanocytic) and blood (leukemic) cancers
xenograft progression (colon HCT116 xenografts): significantly suppressed xenograft progression
xenograft progression (lung A549 xenografts): significantly suppressed xenograft progression
survival of xenograft mice [6]: increases the survival of xenograft mice
body weight of mice [2]: had no effects on the body weight of mice
tumor growth (tumor sizes) [2]: significantly inhibits the tumor growth of the colon cancer PDXs
mouse body weight (lung cancer PDX (L1102F)): no effects of the treatment on mouse body weight
PDX growth (lung cancer PDX (L1102F)): markedly inhibits the PDX growth
tolerability, clinical signs [3]: well tolerated over the treatment period with no clinical signs of lethargy, ataxia, paralysis, seizure or weight loss
logP (log P): 3.7
blood brain barrier crossing ([7]; distribution in brain tumors): can cross the blood brain barrier
toxicity to normal tissues, side effects ([7]; mice, intraperitoneal administration): no toxicity to normal tissues or side effects on mice
pharmacokinetics and tissue distribution ([7]; mouse cancer xenografts, intraperitoneal administration): sufficient for degrading SUMO1 protein in mouse cancer xenografts
conjugated, free form and total levels of SUMO1 protein (SUMO1 [8]; western and dot blotting): reduces the conjugated, free form and total levels of SUMO1 proteins
selectivity of inhibition of conjugation (SUMO1, SUMO2/3, UB) (SUMO1 [8]; western blot, FIG. 2A): selectively inhibiting the conjugation of SUMO1 but not SUMO2/3 or UB

— patent US11731985B2, “Compositions and methods for treating cancer” (Hb Therapeutics Inc., priority 2018, dated 2023)
